Source: patent US12187705B2, “Heteroaryl-triazole and heteroaryl-tetrazole compounds as pesticides” (Bayer Aktiengesellschaft, priority 2018, dated 2025)

Assays:
Format in all cases: in vivo
[1] = test system: Boophilus microplus; assay: Boophilus microplus injection test; conditions: 20 μg/animal, egg deposition after 7 days; for pest or weed control at 0.02 mg: Rhipicephalus microplus, 168 h, read-out: efficacy (infertile eggs)
In short: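 Engorged adult female ticks, five per dose, received 1 μl of compound in DMSO injected into the abdomen and were kept in a climate chamber. Fertile egg deposition was checked after 7 days, with eggs of unclear fertility held until hatching at about 42 days. Efficacy 100% = all eggs infertile, 0% = all fertile.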

[2] = test system: Nezara viridula; assay: Nezara viridula spray test; conditions: in Hordeum vulgare, 96 h
In short: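 Barley plants infested with stink bug larvae were sprayed with compound diluted in water containing 1000 ppm emulsifier. Mortality (%) was scored after 4 days, 100% meaning all bugs killed.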

[3] = test system: Nilaparvata lugens; assay: Nilaparvata lugens spray test; conditions: Nilaparvata lugens, in Oryza sativa, 96 h
In short: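 Rice plants sprayed with compound diluted in water containing 1000 ppm emulsifier, then infested with brown planthopper. Mortality (%) scored after 4 days, 100% meaning all insects killed.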

[4] = test system: Myzus persicae; assay: Myzus persicae oral test; conditions: 120 h
In short: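 Feeding test: compound diluted in water was combined with IPL41 insect medium (33%+15% sugar) under a parafilm seal. A mixed population of green peach aphids fed through the membrane. Mortality (%) was scored after 5 days.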

[5] = test system: Aedes aegypti strain MONHEIM; assay: Aedes aegypti test (AEDSAE surface treatment & contact assay); conditions: 24 hours after contact, read-out: efficacy (mortality); for mortality at 4 mg/m2: surface concentration 4 mg/m^2, 30 minutes exposure; for mortality at 20 mg/m2: surface concentration 20 mg/m^2, 30 minutes exposure
In short: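 Compound dissolved in acetone (2 mg/ml) with 2000 ppm rapeseed oil methyl ester and dried onto a glazed tile. Adult mosquitoes held on the treated surface for 30 minutes exposure. Percent mortality scored 24 hours after contact.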

[6] = test system: Anopheles funestus strain FUMOZ-R; assay: Anopheles funestus test (ANPHFU surface treatment & contact assay); conditions: 24 hours after contact, read-out: efficacy (mortality)
In short: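 Compound dissolved in acetone (2 mg/ml) with 2000 ppm rapeseed oil methyl ester, dried onto glazed tile; adult Anopheles funestus FUMOZ-R exposed for 30 minutes. Percent mortality scored 24 hours after contact.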

[7] = test system: Phaedon cochleariae; assay: Phaedon cochleariae spray test; conditions: foliar, 168 h, Chinese cabbage leaf disks, after 7 days
Procedure: Phaedon cochleariae—Spray Test
(§1) To produce a suitable preparation of active compound, 1 part by weight of active compound is mixed with the stated amount of solvents and is diluted with water, containing an emulsifier concentration of 1000 ppm, to the desired concentration. Further test concentrations are prepared by dilution with emulsifier containing water.
Chinese cabbage (Brassica pekinensis) leaf disks are sprayed with a preparation of the active ingredient of the desired concentration. Once dry, the leaf disks are infested with mustard beetle larvae (Phaedon cochleariae).
After 7 days mortality in % is determined. 100% means all beetle larvae have been killed and 0% means none of the beetle larvae have been killed.

[8] = test system: Ctenocephalides felis; assay: Ctenocephalides felis oral test; conditions: for mortality at 100 ppm: Ctenocephalides felis, in Bos taurus, po, 48 h
In short: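 About 20 adult unfed fleas fed through parafilm on cattle blood containing compound (DMSO concentrate diluted in blood); blood held at 37° C., fleas at room temperature. Mortality in % scored after 2 days (100% = all killed).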

[9] = test system: Culex quinquefasciatus strain P00; assay: Culex quinquefasciatus test (CULXFA surface treatment & contact assay); conditions: 24 hours after contact, read-out: efficacy (mortality); for mortality at 20 mg/m2: surface concentration 20 mg/m^2, 30 minutes exposure; for mortality at 4 mg/m2: surface concentration 4 mg/m^2, 30 minutes exposure
In short: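 Compound dissolved in acetone (2 mg/ml) with 2000 ppm rapeseed oil methyl ester, applied to glazed tile and dried. Adult strain P00 mosquitoes exposed to the surface for 30 minutes. Percent mortality scored 24 hours after contact.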

[10] = test system: Rhipicephalus sanguineus; assay: Rhipicephalus sanguineus in-vitro contact test with adult brown dog ticks; conditions: 5 μg/cm^2 (=500 g/ha), after 48 hours; for pest or weed control at 5 µg/cm2, 5 µg/cm2: Rhipicephalus sanguineus, read-out: efficacy (ticks dead or moribund)
Procedure: Rhipicephalus sanguineus—In-Vitro Contact Test with Adult Brown Dog Ticks
9 mg compound is solved in 1 ml acetone and diluted with acetone to the desired concentration. 250 μl of the test solution is filled in 25 ml glass test tubes and homogeneously distributed on the inner walls by rotation and tilting on a shaking device (2 h at 30 rpm). With a compound concentration of 900 ppm, an inner surface of 44.7 cm^2 and a homogeneous distribution, a dose of 5 μg/cm^2 is achieved.
After the solvent has evaporated, each test tube is filled with 5-10 adult brown dog ticks (Rhipicephalus sanguineus), closed with a perforated lid and incubated in a lying position at room temperature and relative humidity. After 48 hours efficacy is determined. The ticks are patted on the ground of the tubes and are incubated on a heating plate at 45-50° C. for at most 5 minutes. Immotile or uncoordinated moving ticks, which are not able to escape the heat by climbing upwards, are marked as dead or moribund.
An efficacy of 100% means all ticks are dead or moribund; 0% means no ticks are dead or moribund.

[11] = test system: Ctenocephalides felis; assay: Ctenocephalides felis in-vitro contact test adult cat flea; conditions: 5 μg/cm^2 (=500 g/ha), after 48 hours; for pest or weed control at 5 µg/cm2, 5 µg/cm2: Ctenocephalides felis, read-out: efficacy (fleas dead or moribund)
In short: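 Compound in acetone was coated on glass tube walls, giving 5 μg/cm^2 at 900 ppm. 5-10 adult cat fleas were held at room temperature for 48 h, then heat-challenged at 45-50° C. Fleas immotile or uncoordinated were scored dead/moribund, expressed as % efficacy.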

[12] = test system: Diabrotica balteata; assay: Diabrotica balteata spray test; conditions: 160 μg/well, wheat seeds, after 7 days; for pest or weed control at 160 µg/disc, 160 µg/well: Diabrotica balteata, 168 h, read-out: efficacy (seedlings grown)
In short: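 Wheat seeds germinated 1 day on agar were sprayed with compound diluted in water with 1000 ppm emulsifier, then infested with 10-20 Diabrotica balteata larvae. Efficacy in % scored after 7 days: 100% = seedlings grown as untreated, uninfected control; 0% = no seedlings grown.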

[13] = test system: Spodoptera frugiperda; assay: Spodoptera frugiperda spray test; conditions: in Zea mays, 168 h
In short: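 Caterpillars are placed on sprayed, dried maize leaf sections. Sprays contain compound diluted in water with emulsifier at 1000 ppm; mortality in % is determined 7 days later.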

[14] = test system: Tetranychus urticae; assay: Tetranychus urticae spray test OP-resistant; conditions: French bean leaf disks, after 6 days; for mortality: 500 g/ha
Procedure: Tetranychus urticae—Spray Test OP-Resistant
as §1
French bean (Phaseolus vulgaris) leaf disks infected with all instars of the two spotted spidermite (Tetranychus urticae), are sprayed with a preparation of the active ingredient of the desired concentration.
After 6 days mortality in % is determined. 100% means all spider mites have been killed and 0% means none of the spider mites have been killed.

[15] = test system: cattle ticks (Boophilus microplus) strane Parhurst, SP-resistant; assay: Boophilus microplus dip test; conditions: 100 ppm, egg deposition after 7 days
Procedure: Boophilus microplus—Dip Test
Test animal: cattle ticks (Boophilus microplus) strane Parhurst, SP-resistant
Solvent: dimethyl sulfoxide
To produce a suitable preparation of active compound, 10 mg of active compound are dissolved in 0.5 ml solvent, and the concentrate is diluted with water to the desired concentration.
This compound solution is pipetted into tubes. 8-10 engorged, adult, female cattle ticks (Boophilus microplus) are placed in perforated tubes. These tubes are immersed in the aqueous compound solution until the ticks are completely moistened. After the liquid has drained off, the ticks are transferred to a filter paper in a plastic tray and stored in a climate chamber.
After 7 days egg deposition of fertile eggs is monitored. Eggs where fertility is not visible are stored in a climate chamber till hatching after about 42 days. An efficacy of 100% means all eggs are infertile; 0% means all eggs are fertile.

[16] = test system: Myzus persicae; assay: Myzus persicae spray test; conditions: in Brassica rapa, foliar, 120 h
In short: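 Chinese cabbage leaf disks infested with all aphid instars were sprayed with compound diluted in water containing emulsifier (1000 ppm). Mortality (%) was scored after 5 days, 100% meaning all aphids killed.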

| Structure (SMILES) | pest or weed control at 0.02 mg [1] [%] | mortality at 500 g/ha [2] [%] | mortality at 500 g/ha [3] [%] | mortality at 20 ppm [4] [%] | mortality at 20 mg/m2 [5] [%] | mortality at 500 g/ha [7] [%] | mortality at 100 ppm [8] [%] | mortality at 20 mg/m2 [9] [%] | pest or weed control at 5 µg/cm2, 5 µg/cm2 [11] [%] | pest or weed control at 160 µg/disc, 160 µg/well [12] [%] | mortality at 500 g/ha [13] [%] | mortality at 4 ppm [4] [%] | efficacy (infertile eggs) [15] [%] | efficacy (infertile eggs) [1] [%] | efficacy (seedlings grown) [12] [%] | efficacy (fleas dead or moribund) [11] [%] | further results |
| --- | --- | --- | --- | --- | --- | --- | --- | --- | --- | --- | --- | --- | --- | --- | --- | --- | --- |
| CC(c1ncnn1-c1ncccn1)N(CC1CC1)C(=O)c1cccc(S(C)(=O)=O)c1 (stereo not drawn) [Example I-001] | 100 | 100 | 100 | 100 | 90 to 100 | 100 | 100 | 80 to 100 | 80 |  |  |  |  |  |  |  | mortality at 4 mg/m2 [5]: 80 to 100%; mortality at 4 mg/m2 ([6]; surface concentration 4 mg/m^2, 30 minutes exposure): 85 to 100%; mortality at 20 mg/m2 ([6]; surface concentration 20 mg/m^2, 30 minutes exposure): 85 to 100%; pest or weed control at 5 µg/cm2, 5 µg/cm2 [10]: 100% |
| CC(c1ncnn1-c1ncccn1)N(CC1CC1)C(=O)c1cc(C(F)(F)F)cc(Cl)c1F (stereo not drawn) [Example I-004] |  | 100 | 100 | 100 |  | 100 | 100 |  |  | 100 | 83 |  |  |  |  |  | pest or weed control at 5 µg/cm2, 5 µg/cm2 [10]: 80% |
| CC(c1ncnn1-c1ncccn1)N(CC1CC1)C(=O)c1cc(C2CC2)cc(C(F)(F)F)c1 (stereo not drawn) [Example I-008] |  | 100 | 100 | 100 |  | 100 |  |  |  | 100 | 100 | 100 |  |  |  |  | mortality at 500 g/ha ([14]; Tetranychus urticae, foliar, 144 h): 95% |
| CC(NC(=O)c1cc(Cl)cc(S(C)(=O)=O)c1)c1ncnn1-c1ncccn1 (stereo not drawn) [Example I-020, 3-chloro-5-(methylsulfonyl)-N-{1-[1-(pyrimidin-2-yl)-1H-1,2,4-triazol-5-yl]ethyl}benzamide] | 100 | 100 | 100 | 100 |  | 100 | 100 |  | 100 | 100 |  | 100 | 100 |  |  |  |  |
| Cc1nc(C(C)NC(=O)c2cc(Cl)cc(S(C)(=O)=O)c2)n(-c2ncccn2)n1 (stereo not drawn) [Example I-034] |  |  |  |  |  |  |  |  |  |  |  |  | 100 | 100 | 100 | 100 | efficacy (ticks dead or moribund) [10]: 80% |
| CC(NC(=O)c1cc(Cl)cc(S(C)(=O)=O)c1)c1ncnn1-c1ccc(C#N)cn1 (stereo not drawn) [Example I-035] |  |  |  |  |  |  |  |  |  |  |  |  | 100 | 100 | 100 | 100 |  |
| CC(NC(=O)c1cc(Cl)cc(S(C)(=O)=O)c1)c1ncnn1-c1ncc(F)cn1 (stereo not drawn) [Example I-036] |  |  |  |  |  |  |  |  |  |  |  |  | 90 | 100 | 100 | 100 | efficacy (ticks dead or moribund) [10]: 80% |
| C[C@@H](NC(=O)c1cc(Cl)cc(S(C)(=O)=O)c1)c1ncnn1-c1ncc(Cl)cn1 [Example I-038] | 100 | 100 |  |  | 90 to 100 |  | 100 | 80 to 100 | 100 |  | 100 | 100 | 100 |  |  |  | mortality at 4 mg/m2 [5]: 80 to 100%; mortality at 4 mg/m2 [9]: 80 to 100% |
| CCS(=O)(=O)c1cc(Cl)cc(C(=O)N[C@@H](C)c2ncnn2-c2ncccn2)c1 [Example I-044, 3-chloro-5-(ethylsulfonyl)-N-{(1S)-1-[1-(pyrimidin-2-yl)-1H-1,2,4-triazol-5-yl]ethyl}benzamide] | 100 | 100 | 100 |  | 90 to 100 |  | 100 | 80 to 100 | 100 | 100 | 83 | 100 | 100 |  |  |  | mortality at 4 mg/m2 [5]: 80 to 100%; mortality at 500 g/ha [16]: 100%; mortality at 4 mg/m2 [9]: 80 to 100% |
| CC(C)Sc1cc(Cl)cc(C(=O)N[C@@H](C)c2ncnn2-c2ncccn2)c1 [Example I-046, 3-chloro-5-(isopropylsulfanyl)-N-{(1S)-1-[1-(pyrimidin-2-yl)-1H-1,2,4-triazol-5-yl]ethyl}benzamide] | 100 | 100 | 90 |  | 90 to 100 |  | 100 | 80 to 100 | 100 |  | 100 | 100 | 100 |  |  |  | mortality at 500 g/ha [16]: 100% |
| CC(NC(=O)c1cc(Cl)cc(C2CC2)c1)c1ncnn1-c1ncccn1 (stereo not drawn) [Example I-050] |  |  |  |  |  |  |  |  |  |  |  |  | 90 | 100 | 80 | 100 |  |
| CC(NC(=O)c1ccc(S(=O)(=O)C(F)(F)F)cc1)c1ncnn1-c1ncccn1 (stereo not drawn) [Example I-056] |  |  |  |  |  |  |  |  |  |  |  |  |  |  |  |  | mortality [14]: 90%; mortality ([8]; 100 ppm in cattle blood, after 2 days): 90% |
| CC(NC(=O)c1cncc(-c2ccc(Cl)cc2)c1)c1ncnn1-c1ncccn1 (stereo not drawn) [Example I-112] |  |  |  |  |  |  |  |  |  |  |  |  |  |  |  |  | mortality [14]: 90% |
